Source: ChEMBL document CHEMBL1926508, “Pharmacophore-based discovery of FXR agonists. Part I: Model development and experimental validation” (Bioorg Med Chem, 2011)
Activity calls are given as the source filed them. The calls are words filed in the database; no cut-off is given here.

molecular target: T1, Bile acid receptor (Mus musculus) (UniProt Q60641); experiment: Agonist activity at mouse FXR expressed in HEK293 cells co-expressing mouse RXRalpha and ECRE-luc by luciferase reporter gene assay; format: functional, cell-based
T1 sequence (whole entry): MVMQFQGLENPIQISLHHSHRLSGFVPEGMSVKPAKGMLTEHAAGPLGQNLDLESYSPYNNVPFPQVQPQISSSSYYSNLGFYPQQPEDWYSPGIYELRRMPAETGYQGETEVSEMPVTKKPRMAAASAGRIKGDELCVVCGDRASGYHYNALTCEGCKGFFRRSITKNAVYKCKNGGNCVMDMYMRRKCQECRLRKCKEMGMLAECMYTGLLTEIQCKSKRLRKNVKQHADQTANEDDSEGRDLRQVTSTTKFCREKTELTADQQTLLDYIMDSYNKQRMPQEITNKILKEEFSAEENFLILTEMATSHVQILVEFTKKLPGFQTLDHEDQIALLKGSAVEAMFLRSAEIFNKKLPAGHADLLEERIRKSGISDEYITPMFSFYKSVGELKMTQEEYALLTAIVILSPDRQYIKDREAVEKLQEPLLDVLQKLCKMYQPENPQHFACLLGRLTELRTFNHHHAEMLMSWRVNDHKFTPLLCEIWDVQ

Row | Activity | SMILES
1 | Dose-dependent effect | CCCCc1ccc([C@@H](CC(=O)c2ccccc2)c2ccccc2)cc1
2 | Dose-dependent effect | COc1ccc(N2CCN(C[C@H](O)COc3cc4c(c5c3CCCC5)CCCC4)CC2)cc1

molecular target: T1, Bile acid receptor (Mus musculus); experiment: Agonist activity at mouse FXR expressed in HEK293 cells co-expressing mouse RXRalpha and ECRE-luc up to 100 uM by luciferase reporter gene assay; format: functional, cell-based

Row | SMILES | Activity
3 | COc1ccc(/C(C)=N/NC(=O)CC(=O)N(C(=O)c2ccccc2)c2ccc(C)cc2)cc1 | inactive
4 | Cc1cc(C(=O)CCCCCCCCC(=O)O)ccc1O | inactive
5 | O=C(O)c1cnc2cc(OCCOc3ccc(F)cc3)ccc2c1O | inactive

More lines, now with the values ahead:

Row | Activity | SMILES
6 | inactive | O=C(O)c1ccc(C(=O)c2ccc(C(=O)c3ccc(C(=O)O)cc3)cc2)cc1
7 | inactive | C[C@]12CC[C@H]3[C@@H](CCC4CC(=O)/C(=C\C(F)(F)F)C[C@@]43C)[C@@H]1CC[C@@H]2C(=O)O (stereo partly drawn)
8 | inactive | C1=C(c2ccc(OCc3ccccc3)c(OCc3ccccc3)c2)CC2CCCCC2C1 (stereo not drawn)
